Test results as given in the supplement of paper PMC4862054.

Key:
Details in all cases: incubation time: 72 h
CAL-85-1 [1] = test: normalised response (% of control), CellTiter-Glo; higher = more viable cells (100 = DMSO, 0 = benzethonium chloride kill control)
In short: (§1)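 Each value is the plate-normalised signal at one concentration of the series. Breast cancer cell lines (20 µl suspension) were incubated 72 h in 384-well plates with compound at 5 concentrations in 10-fold steps over a compound-specific 10,000-fold range. CellTox Green and then CellTiter-Glo were read, and each plate was scaled to 0.1 % DMSO (100) and a positive kill control (0).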

MDA-MB-231 = test: as above
In short: as §1

HCC1143 = test: as above
In short: as §1

CAL-51 [2] = test: as above
In short: as §1

HCC1937 = test: as above
In short: as §1

MDA-MB-453 [3] = test: as above
In short: as §1

SK-BR-3 = test: as above
In short: as §1

DU-4475 = test: normalised viability (% of control), CellTiter-Blue; higher = more viable cells (about 100 = DMSO control)
In short: (§2)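 Each entry is normalised viability at a single listed concentration within a series. It comes from breast cancer cell lines incubated 72 h with compound in 384-well plates, then measured with CellTiter-Blue fluorescence at 560/590 nm. Every plate was normalised between vehicle (100) and a positive kill control (0).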

CAL-148 = test: as above
In short: as §2

CAL-85-1 [4] = test: as above
In short: as §2

CAL-51 [5] = test: as above
In short: as §2

MDA-MB-453 [6] = test: as above
In short: as §2

HDQ-P1 = test: as above
In short: as §2

For `COc1ncc(-c2ccc3nccc(-c4ccnnc4)c3c2)cc1NS(=O)(=O)c1ccc(F)cc1F` (100 nM), the normalised response (CAL-85-1 [1]) was 31.8%, the normalised response (MDA-MB-231) was 55% and the normalised response (HCC1143) was 38.2%. The normalised response (CAL-51 [2]) was 29.5%, the normalised response (HCC1937) was 54.6% and the normalised response (MDA-MB-453 [3]) was 20.1%. For the same compound, the normalised response (SK-BR-3) was 23.6%.
Compound `COc1ncc(-c2ccc3nccc(-c4ccnnc4)c3c2)cc1NS(=O)(=O)c1ccc(F)cc1F` (1000 nM) has a normalised viability (DU-4475) of 10.2%, a normalised viability (CAL-148) of 2.42% and a normalised viability (CAL-85-1 [4]) of 18.6%. It also gave a normalised viability (CAL-51 [5]) of 3.63%, a normalised viability (MDA-MB-453 [6]) of 5.04% and a normalised viability (HDQ-P1) of 14.4%.
In the case of `C[C@@]1(C(=O)Nc2ccc(F)nc2)CCCN1c1nc(Nc2cc(C3CC3)n[nH]2)c2cccn2n1` (1000 nM), the normalised response (CAL-85-1 [1]) is reported as 57.6%, the normalised response (MDA-MB-231) is reported as 62.4% and the normalised response (HCC1143) is reported as 71.5%. For the same compound, the normalised response (CAL-51 [2]) was 62.5%, the normalised response (HCC1937) was 86.9% and the normalised response (MDA-MB-453 [3]) was 115%. The normalised response (SK-BR-3) was 67.9%.
Compound `C[C@@]1(C(=O)Nc2ccc(F)nc2)CCCN1c1nc(Nc2cc(C3CC3)n[nH]2)c2cccn2n1` (10000 nM) has a normalised viability (DU-4475) of 3.48%, a normalised viability (CAL-148) of 49.1% and a normalised viability (CAL-85-1 [4]) of 30.6%. It also gave a normalised viability (CAL-51 [5]) of 6.06%, a normalised viability (MDA-MB-453 [6]) of 75.3% and a normalised viability (HDQ-P1) of 7.47%.
`COc1c(C)cnc(Cn2cnc3c(Cl)nc(N)nc32)c1C` [BIIB021] (1000 nM) showed a normalised response (CAL-85-1 [1]) of 26.9%, a normalised response (MDA-MB-231) of 25.5% and a normalised response (HCC1143) of 38.6%. It also gave a normalised response (CAL-51 [2]) of 19%, a normalised response (HCC1937) of 24.7% and a normalised response (MDA-MB-453 [3]) of 27.8%. For the same compound, the normalised response (SK-BR-3) was 37.8%.
`COc1c(C)cnc(Cn2cnc3c(Cl)nc(N)nc32)c1C` [BIIB021] (10000 nM) gave a normalised viability (DU-4475) of -0.63%, a normalised viability (CAL-148) of 15.7% and a normalised viability (CAL-85-1 [4]) of 21.7%. The normalised viability (CAL-51 [5]) was 9.69%, the normalised viability (MDA-MB-453 [6]) was 4.83% and the normalised viability (HDQ-P1) was 30.4%.
For `CC(C)C[C@H](NC(=O)[C@H](Cc1ccccc1)NC(=O)c1cnccn1)B(O)O` [Bortezomib] (100 nM), the normalised response (CAL-85-1 [1]) was 1.51%, the normalised response (MDA-MB-231) was 0.34% and the normalised response (HCC1143) was 10.9%. For the same compound, the normalised response (CAL-51 [2]) was 1.1%, the normalised response (HCC1937) was 59% and the normalised response (MDA-MB-453 [3]) was 29.7%. The normalised response (SK-BR-3) was 4.21%.
In the case of `CC(C)C[C@H](NC(=O)[C@H](Cc1ccccc1)NC(=O)c1cnccn1)B(O)O` [Bortezomib] (1000 nM), the normalised viability (DU-4475) is reported as 0.03%, the normalised viability (CAL-148) is reported as 0.38% and the normalised viability (CAL-85-1 [4]) is reported as 2.28%. It also gave a normalised viability (CAL-51 [5]) of 1.02%, a normalised viability (MDA-MB-453 [6]) of 11.1% and a normalised viability (HDQ-P1) of -1.16%.
In the case of `CS(=O)(=O)OCCCCOS(C)(=O)=O` [Busulfan] (10000 nM), the normalised response (CAL-85-1 [1]) is reported as 98.2%, the normalised response (MDA-MB-231) is reported as 102% and the normalised response (HCC1143) is reported as 99.1%. It also gave a normalised response (CAL-51 [2]) of 109%, a normalised response (HCC1937) of 99.6% and a normalised response (MDA-MB-453 [3]) of 115%. For the same compound, the normalised response (SK-BR-3) was 110%.
Work on `CS(=O)(=O)OCCCCOS(C)(=O)=O` [Busulfan] (100000 nM) yielded a normalised viability (DU-4475) of 89%, a normalised viability (CAL-148) of 114% and a normalised viability (CAL-85-1 [4]) of 105%. The normalised viability (CAL-51 [5]) was 91.9%, the normalised viability (MDA-MB-453 [6]) was 103% and the normalised viability (HDQ-P1) was 109%.
Compound `C#Cc1cccc(Nc2ncnc3cc(OC)c(OCCCCCCC(=O)NO)cc23)c1` [CUDC-101] (1000 nM) has a normalised response (CAL-85-1 [1]) of 6.55%, a normalised response (MDA-MB-231) of 39.1% and a normalised response (HCC1143) of 48.9%. The normalised response (CAL-51 [2]) was 68.4%, the normalised response (HCC1937) was 63.6% and the normalised response (MDA-MB-453 [3]) was 13.5%. It also gave a normalised response (SK-BR-3) of 33.5%.
`C#Cc1cccc(Nc2ncnc3cc(OC)c(OCCCCCCC(=O)NO)cc23)c1` [CUDC-101] (10000 nM) showed a normalised viability (DU-4475) of 1.42%, a normalised viability (CAL-148) of 0.77% and a normalised viability (CAL-85-1 [4]) of 1.33%. It also gave a normalised viability (CAL-51 [5]) of 18.1%, a normalised viability (MDA-MB-453 [6]) of 0.71% and a normalised viability (HDQ-P1) of 19.3%.
Compound `COc1cccc2c1C(=O)c1c(O)c3c(c(O)c1C2=O)C[C@@](O)(C(C)=O)C[C@@H]3O[C@H]1C[C@H](N)[C@H](O)[C@H](C)O1` [Daunorubicin] (100 nM) has a normalised response (CAL-85-1 [1]) of 97.5%, a normalised response (MDA-MB-231) of 88.7% and a normalised response (HCC1143) of 95.8%. For the same compound, the normalised response (CAL-51 [2]) was 46.2%, the normalised response (HCC1937) was 98.2% and the normalised response (MDA-MB-453 [3]) was 139%. The normalised response (SK-BR-3) was 91.9%.
With `COc1cccc2c1C(=O)c1c(O)c3c(c(O)c1C2=O)C[C@@](O)(C(C)=O)C[C@@H]3O[C@H]1C[C@H](N)[C@H](O)[C@H](C)O1` [Daunorubicin] (1000 nM) the normalised viability (DU-4475) was -1.24%, the normalised viability (CAL-148) was -0.25% and the normalised viability (CAL-85-1 [4]) was 12.2%. The normalised viability (CAL-51 [5]) was 1.88%, the normalised viability (MDA-MB-453 [6]) was 11.6% and the normalised viability (HDQ-P1) was 16%.
`CN1CCN(c2ccc3nc(-c4c(N)c5c(F)cccc5[nH]c4=O)[nH]c3c2)CC1` [Dovitinib] (1000 nM) gave a normalised response (CAL-85-1 [1]) of 117%, a normalised response (MDA-MB-231) of 101% and a normalised response (HCC1143) of 99.1%. The normalised response (CAL-51 [2]) was 115%, the normalised response (HCC1937) was 94.7% and the normalised response (MDA-MB-453 [3]) was 92%. It also gave a normalised response (SK-BR-3) of 97.2%.
`CN1CCN(c2ccc3nc(-c4c(N)c5c(F)cccc5[nH]c4=O)[nH]c3c2)CC1` [Dovitinib] (10000 nM) showed a normalised viability (DU-4475) of 96.7%, a normalised viability (CAL-148) of 88.5% and a normalised viability (CAL-85-1 [4]) of 87.1%. For the same compound, the normalised viability (CAL-51 [5]) was 108%, the normalised viability (MDA-MB-453 [6]) was 79% and the normalised viability (HDQ-P1) was 96.4%.
`O=c1[nH]c(=O)n([C@H]2C[C@H](O)[C@@H](CO)O2)cc1F` [Floxuridine] (1000 nM) gave a normalised response (CAL-85-1 [1]) of 42.7%, a normalised response (MDA-MB-231) of 76.8% and a normalised response (HCC1143) of 94.3%. It also gave a normalised response (CAL-51 [2]) of 37.8%, a normalised response (HCC1937) of 56.4% and a normalised response (MDA-MB-453 [3]) of 102%. For the same compound, the normalised response (SK-BR-3) was 54.2%.
For `O=c1[nH]c(=O)n([C@H]2C[C@H](O)[C@@H](CO)O2)cc1F` [Floxuridine] (10000 nM), the normalised viability (DU-4475) was 56.2%, the normalised viability (CAL-148) was 31.9% and the normalised viability (CAL-85-1 [4]) was 39.3%. The normalised viability (CAL-51 [5]) was 15.5%, the normalised viability (MDA-MB-453 [6]) was 32.2% and the normalised viability (HDQ-P1) was 93.9%.
Work on `O=c1[nH]cc(F)c(=O)[nH]1` [Fluorouracil] (1000 nM) yielded a normalised response (CAL-85-1 [1]) of 52.8%, a normalised response (MDA-MB-231) of 97.7% and a normalised response (HCC1143) of 100%. For the same compound, the normalised response (CAL-51 [2]) was 110%, the normalised response (HCC1937) was 94.7% and the normalised response (MDA-MB-453 [3]) was 121%. The normalised response (SK-BR-3) was 78.9%.
